pIC50: −log10 of the molar value.
What was measured:
PI3Kα = PI3Kα (Homo sapiens (Human), UniProt P42336); assay: Biochemical evaluation of activity of PI3Kα (Kinase-Glo luminescence kinase assay); conditions: 25 μM ATP, 50 μM PIP2, 1 h at room temperature
Method in brief: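 Inhibition of PI3Kα was measured in vitro with a luciferase-based Kinase-Glo™ luminescence readout in white 384-well plates at room temperature. Compound diluted 25-fold in buffer (50 mM Hepes pH 7.5, 3 mM MgCl2, 100 mM NaCl, 1 mM EGTA, 0.03% CHAPS, 2 mM DTT) was mixed with enzyme, then PIP2/ATP substrate was added. Percent inhibition used enzyme-free and DMSO controls; IC50 was fitted with XLfit.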

[1] = system: human lung cancer cell NCI-H460; assay: Tumor cell viability by MTT assay; assay type: cell-based; conditions: Homo sapiens, NCI-H460, 96 h
Method in brief: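 NCI-H460 cells exposed to six to nine compound concentrations (DMSO below 0.2%, triplicate wells) for 96 hours at 37° C, 5% CO2. MTT added for 4 hours, formazan dissolved in DMSO and OD read at 570 nm against DMSO-treated controls.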

[2] = system: human lung cancer NCI-H460 subcutaneous xenografts; assay: Xenograft efficacy in nude mice, NCI-H460; assay type: in vivo; conditions: for Growth inhibition: NCI-H460 xenograft, 16 days of dosing
Protocol: (§1) Human lung cancer NCI-H460 cells were collected under aseptic conditions, and the cell density was adjusted to 1×10^6 cells/mL with sterile saline, 0.2 mL of which was implanted into the back of the nude mice. When the tumor grew to a diameter of about 1 cm, it was removed under septic condition and cut into pieces of 1 mm×1 mm which was implanted into the back of the nude mice. When the tumor grew to 100-300 mm^3 after 6 days, the animals were randomly divided into groups and administration was started (marked as Day 1). The test compound was administered orally every day. Body weight was measured twice a week and the length and width of the tumor were measured with a vernier caliper. After 16 days of dosing, the nude mice were sacrificed by cervical dislocation and the tumor issues were exfoliated, weighed and photographed. Finally, the tumor inhibitory rate was calculated. The antitumor efficacy was evaluated by the tumor inhibitory rate. The results were shown in Table 3, Table 4, FIG. 1 and FIG. 2.
(§2) The tumor volume was calculated as follows: Tumor volume=(a×b^2)/2, where a and b represented the length and width of the tumor.
(§3) The percentage of tumor growth inhibition was calculated as follows: Tumor growth inhibition (%)=(1−T/C)×100, where T was the final volume of the tumor in the test compound group and C was the final volume of the tumor in the solvent control group.

[3] = system: human gastric cancer HGC-27 subcutaneous xenografts; assay: Xenograft efficacy in nude mice, HGC-27; assay type: in vivo
Protocol: as §1, with “gastric” for “lung”, “HGC-27” for “NCI-H460”, “When the tumor grew to a diameter of about 1 cm, it was removed under septic condition and cut into pieces of 1 mm×1 mm which was implanted into the back of the nude mice.” left out, “0).” for “1).”, “20” for “16”, “rate.” for “rate. The results were shown in Table 3, Table 4, FIG. 1 and FIG. 2.”
as §2, §3
The percentage of tumor regression was calculated by 100×(final tumor volume-initial tumor volume)/initial tumor volume.

Chain of PI3Kα (P42336 whole entry): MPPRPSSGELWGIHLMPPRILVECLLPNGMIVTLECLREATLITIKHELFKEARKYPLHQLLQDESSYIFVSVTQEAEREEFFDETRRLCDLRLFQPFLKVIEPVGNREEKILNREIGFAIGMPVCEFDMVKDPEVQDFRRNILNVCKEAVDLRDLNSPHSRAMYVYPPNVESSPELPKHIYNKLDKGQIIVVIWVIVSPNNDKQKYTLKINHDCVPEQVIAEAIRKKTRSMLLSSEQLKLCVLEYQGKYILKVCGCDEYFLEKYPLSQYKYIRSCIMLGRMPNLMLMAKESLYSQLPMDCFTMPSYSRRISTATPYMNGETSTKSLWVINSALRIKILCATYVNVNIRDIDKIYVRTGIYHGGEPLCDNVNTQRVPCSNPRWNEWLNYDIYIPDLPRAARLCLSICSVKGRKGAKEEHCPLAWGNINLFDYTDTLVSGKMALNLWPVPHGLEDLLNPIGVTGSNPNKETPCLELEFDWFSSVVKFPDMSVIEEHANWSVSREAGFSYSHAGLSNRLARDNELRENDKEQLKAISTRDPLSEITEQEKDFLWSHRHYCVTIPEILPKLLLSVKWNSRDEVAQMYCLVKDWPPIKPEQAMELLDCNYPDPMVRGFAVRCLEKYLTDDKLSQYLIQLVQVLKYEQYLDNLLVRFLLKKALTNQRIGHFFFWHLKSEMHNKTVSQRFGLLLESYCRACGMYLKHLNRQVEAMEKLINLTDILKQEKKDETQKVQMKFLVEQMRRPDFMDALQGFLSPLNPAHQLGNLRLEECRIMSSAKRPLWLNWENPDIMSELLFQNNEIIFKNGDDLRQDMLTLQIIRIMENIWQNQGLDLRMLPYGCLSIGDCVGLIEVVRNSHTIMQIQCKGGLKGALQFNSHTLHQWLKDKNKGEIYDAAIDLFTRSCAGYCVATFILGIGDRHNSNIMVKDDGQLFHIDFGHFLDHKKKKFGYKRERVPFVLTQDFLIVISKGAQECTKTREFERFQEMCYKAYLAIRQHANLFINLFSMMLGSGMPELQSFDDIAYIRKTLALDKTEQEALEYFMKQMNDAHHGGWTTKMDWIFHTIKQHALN
Chain of PI3Kα (P27986 whole entry partner): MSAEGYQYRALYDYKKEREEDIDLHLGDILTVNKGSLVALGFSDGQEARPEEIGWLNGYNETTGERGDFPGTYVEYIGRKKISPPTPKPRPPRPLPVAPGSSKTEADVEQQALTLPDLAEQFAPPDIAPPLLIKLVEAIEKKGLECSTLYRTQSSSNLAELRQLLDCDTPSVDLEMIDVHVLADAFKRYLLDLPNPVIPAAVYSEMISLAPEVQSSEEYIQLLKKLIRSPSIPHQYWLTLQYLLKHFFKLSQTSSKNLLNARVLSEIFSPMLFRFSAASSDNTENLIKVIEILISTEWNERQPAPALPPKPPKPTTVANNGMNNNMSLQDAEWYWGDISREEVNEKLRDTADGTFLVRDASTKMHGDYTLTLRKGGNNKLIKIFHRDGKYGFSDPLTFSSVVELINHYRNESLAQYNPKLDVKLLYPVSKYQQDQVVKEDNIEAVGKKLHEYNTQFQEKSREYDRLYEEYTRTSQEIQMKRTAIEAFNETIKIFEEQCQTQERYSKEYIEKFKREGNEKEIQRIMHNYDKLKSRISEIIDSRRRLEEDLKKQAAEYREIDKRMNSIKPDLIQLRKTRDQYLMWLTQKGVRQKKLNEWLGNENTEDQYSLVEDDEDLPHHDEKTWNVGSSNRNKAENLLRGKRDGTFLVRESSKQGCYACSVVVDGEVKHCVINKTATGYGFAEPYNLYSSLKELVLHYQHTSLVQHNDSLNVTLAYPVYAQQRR

| pIC50 (PI3Kα) | pIC50 [1] | Structure (SMILES) | inhibitory effect against growth of NCI-H460 subcutaneous xenografts (in words) [2] | Growth inhibition ([2]; 5 mg/kg/day orally) | Growth inhibition ([2]; 10 mg/kg/day orally) | Growth inhibition ([2]; 20 mg/kg/day orally) | inhibitory effect on growth of HGC-27 subcutaneous xenografts (in words) [3] | Growth inhibition ([3]; HGC-27 xenograft, 5 mg/kg/day orally, 20 days of dosing) | Regression ([3]; HGC-27 xenograft, 10 mg/kg/day orally, 20 days of dosing) | Growth inhibition ([2]; 1 mg/kg/day orally) |
| --- | --- | --- | --- | --- | --- | --- | --- | --- | --- | --- |
| 9.07 | 7.03 | COc1ncc(-c2cc(O[C@@H]3CCOC3)c3nc(N)nc(C)c3c2)cc1NS(=O)(=O)c1ccc(F)cc1F [Example 9, (R)—N-(5-(2-amino-4-methyl-8-((tetrahydrofuran-3-yl)oxy)quinazolin-6-yl)-2-methoxypyridin-3-yl)-2,4-difluorobenzenesulfonamide] | significant inhibitory effects | 39.2% | 56.3% | 77.0% |  |  |  |  |
| 9.09 |  | CNc1nc(C)c2cc(-c3cnc(OC)c(NS(=O)(=O)c4ccc(F)cc4F)c3)cc(O[C@@H]3CCOC3)c2n1 [Example 32, (R)—N-(2-methoxy-5-(4-methyl-2-(methylamino)-8-((tetrahydrofuran-3-yl)oxy)quinazolin-6-yl)pyridin-3-yl)-2,4-difluorobenzenesulfonamide] |  |  |  |  | significant inhibitory effect | 76.9% | 70.5% |  |
| 9.19 | 7.54 | COc1ncc(-c2cc(OC3CCOCC3)c3ncnc(C)c3c2)cc1NS(=O)(=O)c1ccc(F)cc1F [Example 44, N-(2-methoxy-5-(4-methyl-8-((tetrahydro-2H-pyran-4-yl)oxy)quinazolin-6-yl)pyridin-3-yl)-2,4-difluorobenzenesulfonamide] | significant inhibitory effects |  |  |  |  |  |  | 60.3% |
